Experimental findings from US20160061841A1, “NRF2-BASED CANCER TREATMENT AND DETECTION METHODS AND USES” (CanBas Co., Ltd., priority 2014, published 2016) are described below.

One test has as its system Nrf2. The conditions noted are these: Western blot.
In test [1] the test system is H1703 Control (Ctrl)-sh and Nrf2-sh sub-lines. In words: Cell cycle distribution after SFN, CDDP and CBP501 in H1703 Ctrl-sh and Nrf2-sh sub-lines. It is filed as cell-based, Human. The conditions noted are these: SFN 24 h prior to 1 h CDDP (2.5 μg/ml)/CBP501 (1 μM). The protocol:
FIGS. 4C, 4D show Analysis of cell cycle distribution changes by using Flow-cytometry (n=4). SFN was subjected 24h to H1703 Control (Ctrl)-sh and Nrf2-sh sub-lines prior to lh treatment of CDDP (2.5 μg/m1)/CBP501 (1 μM). (FIG. 4C) Whole cell cycle distribution. (FIG. 4D) G2-M phase. An asterisk indicates statistical significance (TTEST; p<0.005). Error bars signify standard deviations as determined from four flowcytometric analyses.
Cell cycle analysis. Cells were plated in 24-well plates and incubated for 24 hours. The cells were treated with or without CDDP plus or minus CBP501 at the indicated concentration for the indicated times. The cells were harvested and stained with Krishan's solution (0.1% sodium citrate, 50 μg/ml propidium iodide, 20 μg/ml RNase A, 0.5% NP-40). Stained cells were analyzed by FACSCalibur (Becton Dickinson, Franklin Lakes, N.J.) using CELLQuest software (Becton Dickinson).
Lentivirus infection. Nrf2 shRNA lentivirus particles and Control shRNA lentivirus particles were purchased from SantaCruz. Lentivirus infection was performed according to manufacturer's instructions. Cells (50% confluence) were treated with 5 μg/ml Polybrene (SantaCruz) prior to virus infection. One day after addition of virus, the cells were transferred to fresh medium and cells were selected by treatment with Puromycin (SantaCruz). […]

Entries after “also recorded” stand apart in the source; their conditions may differ. Read-outs that look alike come from different tables or passages of the source.

With `C[S+]([O-])CCCCN=C=S` (stereo not shown) [SFN, Sulforaphane], the Nrf2 protein levels result in the test with Nrf2 (H1703 cells transfected with Nrf2 shRNA) was “did not cause a similar increase”; in the test on Nrf2 (H1703 cells transfected with control shRNA) it was “increase in a dose dependent manner”. Further, the “Effect of SFN on CBP501's effect (cell cycle distribution, G2-M)” value is listed as “the effect of SFN was abrogated” in test [1] (H1703 Nrf2 knock-down) and “attenuated CBP501's effect; also recorded: cancels the effect of CBP501” in test [1] (H1703 control shRNA).
